Laboratory results published in ChEMBL document CHEMBL3763136, “Synthesis and neuroprotective activity of dictyoquinazol A and analogues” (Bioorg Med Chem, 2016).
Active and inactive are the calls of the source. The calls are words filed in the database; no cut-off is given here.

How the values were obtained:
SH-SY5Y [1] = test: Neuroprotective activity against L-glutamate-induced excitotoxicity in human SH-SY5Y cells assessed as increase in cell viability after 20 hrs by MTT assay; type: functional, cell-based
SH-SY5Y [2] = test: Neuroprotective activity against H2O2-induced oxidative stress in human SH-SY5Y cells assessed as increase in cell viability after 20 hrs by MTT assay; type: functional, cell-based
SH-SY5Y [3] = test: Neuroprotective activity against staurosporine-induced apoptosis in human SH-SY5Y cells assessed as increase in cell viability after 20 hrs by MTT assay; type: functional, cell-based
SH-SY5Y [4] = test: Cytotoxicity against human SH-SY5Y cells assessed as cell viability at 0.3 to 3 uM after 24 hrs by MTT assay; type: cell-based
SH-SY5Y [5] = test: Cytotoxicity against human SH-SY5Y cells assessed as cell viability up to 3 uM after 24 hrs by MTT assay; type: cell-based
SH-SY5Y [6] = test: Cytotoxicity against human SH-SY5Y cells assessed as cell viability above 10 uM after 24 hrs by MTT assay; type: cell-based
SH-SY5Y [7] = test: Neuroprotective activity against L-glutamate-induced excitotoxicity in human SH-SY5Y cells assessed as increase in cell viability at 0.3 uM after 20 hrs by MTT assay; type: functional
SH-SY5Y [8] = test: Neuroprotective activity against staurosporine-induced apoptosis in human SH-SY5Y cells assessed as increase in cell viability at 0.3 uM after 20 hrs by MTT assay; type: functional
SH-SY5Y [9] = test: Neuroprotective activity against H2O2-induced oxidative stress in human SH-SY5Y cells assessed as increase in cell viability at 0.6 to 1.2 uM after 20 hrs by MTT assay; type: functional
SH-SY5Y [10] = test: Neuroprotective activity against L-glutamate-induced excitotoxicity in human SH-SY5Y cells assessed as increase in cell viability at 0.6 uM after 20 hrs by MTT assay; type: functional

With `COc1ccc(-n2c(=S)[nH]c3ccc(OC)cc3c2=O)c(CO)c1` the Activity (SH-SY5Y [1]) was “Active”, the Activity (SH-SY5Y [2]) was “Active” and the Activity (SH-SY5Y [3]) was “inactive”. The Activity (SH-SY5Y [4]) was “Non-toxic”.

In the case of `COc1ccc(-n2cnc3ccc(OC)cc3c2=O)c(CF)c1`, the Activity (SH-SY5Y [1]) is reported as “Active”, the Activity (SH-SY5Y [2]) is reported as “inactive” and the Activity (SH-SY5Y [3]) is reported as “Active”. The Activity (SH-SY5Y [5]) was “Non-toxic” and the Activity (SH-SY5Y [6]) was “Toxic”.

`COc1ccc(-n2cnc3ccc(OC)cc3c2=O)cc1` was tested, and the Activity (SH-SY5Y [1]) was “Active”, the Activity (SH-SY5Y [2]) was “Active” and the Activity (SH-SY5Y [3]) was “Active”. For the same compound, the Activity (SH-SY5Y [4]) was “Non-toxic”.

In the case of `COC(=O)c1cc(OC)ccc1-n1cnc2ccc(OC)cc2c1=O`, the Activity (SH-SY5Y [1]) is reported as “Active”, the Activity (SH-SY5Y [2]) is reported as “Active” and the Activity (SH-SY5Y [3]) is reported as “Active”. The Activity (SH-SY5Y [4]) was “Non-toxic”.

With `COc1ccc(-n2cnc3ccc(OC)cc3c2=O)c(COC=O)c1` the Activity (SH-SY5Y [5]) was “Non-toxic” and the Activity (SH-SY5Y [6]) was “Toxic”.

In the case of `COc1ccc(-n2cnc3ccc(OC)cc3c2=O)c(CO)c1` [DICTYOQUINAZOLE A], the “%max” value (SH-SY5Y [7]) is reported as 10%, the Activity (SH-SY5Y [8]) is reported as 41% and the Activity (SH-SY5Y [5]) is reported as “Non-toxic”. For the same compound, the Activity (SH-SY5Y [6]) was “Toxic” and the “%max” value (SH-SY5Y [9]) was 22%.

`COc1ccc(-n2c(=O)[nH]c3ccc(OC)cc3c2=O)c(CO)c1` was tested, and the Activity (SH-SY5Y [1]) was “Active”, the Activity (SH-SY5Y [2]) was “Active” and the Activity (SH-SY5Y [3]) was “Active”. For the same compound, the Activity (SH-SY5Y [4]) was “Non-toxic”.

`O=c1c2ccccc2ncn1-c1ccccc1CO` was tested, and the Activity (SH-SY5Y [10]) was 35%, the Activity (SH-SY5Y [2]) was “inactive” and the Activity (SH-SY5Y [3]) was “Active”. The Activity (SH-SY5Y [5]) was “Non-toxic” and the Activity (SH-SY5Y [6]) was “Toxic”.
